Assays:
Conditions in all cases: 72 h
[1] = tested on: U2OS; test: relative viability EC50 (midpoint between 100% and the lowest measured viability); higher = less toxic
[2] = tested on: Calu-3; test: as above
[3] = tested on: Vero E6; test: as above
[4] = tested on: Caco-2; test: as above
[5] = tested on: U2OS; test: drug sensitivity score (DSS) for viability; higher = more toxic; extreme values may be limits of the assay
[6] = tested on: Calu-3; test: as above
[7] = tested on: Vero E6; test: as above
[8] = tested on: Caco-2; test: as above
[9] = tested on: U2OS; test: cell viability relative to DMSO; higher = less toxic
[10] = tested on: Calu-3; test: as above
[11] = tested on: Vero E6; test: as above
[12] = tested on: Caco-2; test: as above
[13] = tested on: HepG2; test: relative viability EC50 (midpoint between 100% and the lowest measured viability); higher = less toxic
[14] = tested on: HepG2; test: drug sensitivity score (DSS) for viability; higher = more toxic; extreme values may be limits of the assay
[15] = tested on: HepG2; test: cell viability relative to DMSO; higher = less toxic

Row | Compound | relative viability EC50 [1] [µM] | relative viability EC50 [2] [µM] | relative viability EC50 [3] [µM] | relative viability EC50 [4] [µM] | drug sensitivity score [5] | drug sensitivity score [6] | drug sensitivity score [7] | drug sensitivity score [8] | cell viability ([9]; 1 nM) [%] | cell viability ([9]; 10 nM) [%] | cell viability ([9]; 100 nM) [%] | cell viability ([9]; 1000 nM) [%] | cell viability ([9]; 10000 nM) [%] | cell viability ([10]; 1 nM) [%] | cell viability ([10]; 10 nM) [%] | cell viability ([10]; 100 nM) [%] | cell viability ([10]; 1000 nM) [%] | cell viability ([10]; 10000 nM) [%] | cell viability ([11]; 1 nM) [%] | cell viability ([11]; 10 nM) [%] | cell viability ([11]; 100 nM) [%] | cell viability ([11]; 1000 nM) [%] | cell viability ([11]; 10000 nM) [%] | cell viability ([12]; 1 nM) [%] | cell viability ([12]; 10 nM) [%] | cell viability ([12]; 100 nM) [%] | cell viability ([12]; 1000 nM) [%] | cell viability ([12]; 10000 nM) [%] | relative viability EC50 [13] [µM] | drug sensitivity score [14] | cell viability ([15]; 1 nM) [%] | cell viability ([15]; 10 nM) [%] | cell viability ([15]; 100 nM) [%] | cell viability ([15]; 1000 nM) [%] | cell viability ([15]; 10000 nM) [%]
1 | CCC1=C[C@@H]2CN3CCc4c([nH]c5ccccc45)[C@@](C(=O)OC)(C2)[C@@H]13 [catharanthine] | > 10 | > 10 | > 10 | > 10 | 0 | 0 | 0 | 0 | 92.3 | 100 | 95.7 | 97.1 | 98.4 | 98.5 | 107 | 98.4 | 90.9 | 101 | 103 | 93.4 | 98.4 | 101 | 110 | 93.7 | 92.6 | 95.9 | 103 | 91.9 |  |  |  |  |  |  | 
2 | CCC(=O)O[C@]1(C(=O)CCl)[C@@H](C)C[C@H]2[C@@H]3CCC4=CC(=O)C=C[C@]4(C)[C@@]3(F)[C@@H](O)C[C@@]21C [clobetasol-propionate] | > 10 | > 10 | > 10 |  | 0 | 0 | 0 |  | 95.7 | 95.7 | 93.1 | 90.7 | 91.2 | 91.5 | 96 | 82.2 | 94 | 89.7 | 99.6 | 96.5 | 107 | 93.4 | 95.2 |  |  |  |  |  | > 10 | 0.8 | 107 | 105 | 94.5 | 99.4 | 77.8
3 | C[C@]12CC[C@H](O)CC1=CC[C@@H]1[C@@H]2CC[C@]2(C)C(n3cnc4ccccc43)=CC[C@@H]12 [galeterone] | > 10 | > 10 |  | 1.72 | 0 | 0 | 1.1 | 4.6 | 96.4 | 102 | 93.4 | 95.1 | 92.9 | 91.9 | 95 | 85.5 | 99.6 | 90.2 | 100 | 99 | 102 | 99.2 | 74.5 | 95.6 | 102 | 89.1 | 88.3 | 45.9 | > 10 | 0.9 | 97.8 | 102 | 97.5 | 99.3 | 77.4
4 | CC(C)(CO)CCCCCCC(C)(C)CO [gemcadiol] | > 10 | > 10 | > 10 | > 10 | 0 | 0 | 0 | 0 | 97 | 94.5 | 103 | 96.8 | 98.7 | 97.4 | 93.5 | 100 | 94.3 | 105 | 93.8 | 102 | 102 | 103 | 108 | 89.7 | 129 | 113 | 128 | 92.2 |  |  |  |  |  |  | 
5 | N[C@@H](CCC(=O)N[C@@H](CS)C(=O)NCC(=O)O)C(=O)O [glutathione] | > 10 | > 10 |  | > 10 | 0 | 0 |  | 0 | 95.3 | 97.3 | 99.5 | 96.6 | 102 | 98.1 | 93.2 | 98.8 | 101 | 99.7 |  |  |  |  |  | 92.7 | 90.7 | 105 | 93.6 | 99.4 | > 10 | 0 | 108 | 106 | 97.3 | 99.3 | 104
6 | Clc1ccc(C(Cn2ccnc2)OCc2c(Cl)cccc2Cl)c(Cl)c1 (stereo not given) [isoconazole] | > 10 | > 10 | > 10 |  | 0 | 0.4 | 0 | 1.2 | 104 | 103 | 122 | 110 | 92 | 95.8 | 97.9 | 105 | 98.5 | 84.2 | 102 | 101 | 97.7 | 95.7 | 101 | 97 | 96.4 | 96.8 | 100 | 71.7 |  |  |  |  |  |  | 
7 | CO/N=C1\C[C@]2(C[C@@H]3C[C@@H](C/C=C(\C)C[C@@H](C)/C=C/C=C4\CO[C@@H]5[C@H](O)C(C)=C[C@@H](C(=O)O3)[C@]45O)O2)O[C@H](/C(C)=C/C(C)C)[C@H]1C [moxidectin] | > 10 | > 10 | > 10 |  | 0 | 0 | 0 | 3.6 | 103 | 92.1 | 93.5 | 94.6 | 94.7 | 90.7 | 97.3 | 94.2 | 103 | 89.8 | 96.4 | 96.9 | 88.7 | 96.4 | 101 | 95.3 | 94 | 102 | 88.2 | 62.1 | > 10 | 0 | 101 | 106 | 102 | 105 | 96.7
8 | C#C[C@]1(OC(C)=O)CC[C@H]2[C@@H]3CCC4=CC(=O)CC[C@@H]4[C@H]3CC[C@@]21C [norethindrone-acetate] | > 10 | > 10 | > 10 |  | 0 | 0 | 0 | 2.3 | 100 | 99.6 | 98.5 | 98.5 | 94.9 | 93.2 | 82.9 | 90.8 | 104 | 95.6 | 104 | 108 | 110 | 90.5 | 98.1 | 91.8 | 97.1 | 84.7 | 95 | 70.4 |  |  |  |  |  |  | 
9 | O/N=C/c1cc[n+](COC[n+]2ccc(/C=N/O)cc2)cc1 [obidoxime] | > 10 | > 10 |  | > 10 | 0 | 0 |  | 0 | 97.2 | 101 | 94.9 | 95.2 | 102 | 102 | 91.8 | 100 | 84.1 | 106 |  |  |  |  |  | 94.5 | 99.4 | 94.4 | 94.7 | 94.6 |  |  |  |  |  |  | 
10 | Cc1cn2nc([C@@H]3CCCCN3C(=O)c3cc(Cl)ccc3NS(C)(=O)=O)cc2nc1N1CC[C@H](N)C1 [presatovir] | > 10 | > 10 | > 10 |  | 1.1 | 0 | 0 | 3 | 101 | 97 | 100 | 98.3 | 76.6 | 102 | 107 | 102 | 94 | 98.5 | 98.8 | 103 | 94.4 | 96.8 | 102 | 93.8 | 95.2 | 102 | 96.2 | 53.9 | > 10 | 0 | 98.8 | 110 | 104 | 106 | 105
11 | CC(C)(C)Sc1c(CC(C)(C)C(=O)O)n(Cc2ccc(Cl)cc2)c2ccc(OCc3ccc4ccccc4n3)cc12 [quiflapon] | > 10 | > 10 |  | > 10 | 0 | 0 |  | 0 | 102 | 108 | 104 | 99.6 | 109 | 91.5 | 97.3 | 98.7 | 102 | 110 |  |  |  |  |  | 104 | 102 | 97 | 96 | 102 | > 10 | 0 | 105 | 95.6 | 96.8 | 98.3 | 104
12 | O=C(/C=C/c1ccccc1)NC(NC(=S)Nc1cccc2cccnc12)C(Cl)(Cl)Cl (stereo not given) [salubrinal] | > 10 | > 10 |  | > 10 | 0 | 0 |  | 0.4 | 98.3 | 107 | 101 | 102 | 91.1 | 99.4 | 100 | 97.6 | 109 | 87.1 |  |  |  |  |  | 126 | 102 | 96.7 | 103 | 80.1 | > 10 | 0 | 107 | 111 | 99.1 | 101 | 108
13 | O=C1c2ccc(Nc3ccc(F)cc3F)cc2CCc2ccc(OC[C@H](O)CO)cc21 [skepinone-L] | > 10 | > 10 | > 10 |  | 0.1 | 0 | 1.9 | 2.5 | 96.5 | 91.8 | 91.4 | 90.2 | 89.5 | 97.2 | 94 | 96.2 | 101 | 94.7 | 103 | 103 | 86.8 | 89.4 | 80.3 | 103 | 84.1 | 89.2 | 91.7 | 73.4 | > 10 | 0.8 | 102 | 109 | 98.8 | 101 | 75.2
14 | Cc1nnc(NS(=O)(=O)c2ccc(N)cc2)s1 [sulfamethizole] | > 10 | > 10 |  | > 10 | 0 | 0 |  | 0 | 103 | 98.1 | 103 | 99.2 | 99.2 | 96.3 | 98.4 | 96.7 | 99.2 | 105 |  |  |  |  |  | 88.1 | 85.7 | 98.9 | 93.6 | 99 | > 10 | 0 | 102 | 111 | 98 | 108 | 90.4
15 | Cc1cn([C@H]2C[C@H](N=[N+]=[N-])[C@@H](CO)O2)c(=O)[nH]c1=O [zidovudine] | > 10 | > 10 |  | > 10 | 0 | 0 |  | 0 | 103 | 104 | 95.2 | 103 | 94.3 | 107 | 89.6 | 101 | 98.9 | 103 |  |  |  |  |  | 94.9 | 92.6 | 105 | 98 | 98 | > 10 | 0 | 101 | 109 | 99 | 94.6 | 104

From the supplement of paper PMC13380429
